Source: ChEMBL document CHEMBL4806959, “Antagonistic peptides for frizzled-1 and frizzled-2” (2015)
The source made the active and inactive calls. Residues, ends and D or L forms follow the SMILES beside them.

Columns and labels:
[1] = target: Frizzled-1 (Rattus norvegicus) (UniProt Q08463); assay: Antagonist activity at Wnt3a-stimulated rat frizzled-1 expressed in African green monkey COS7 cells up to 10 uM incubated for 24 hrs by luciferase reporter gene assay; format: cell-based; conditions: dose microM <=10, time 24.0 hrs
Frizzled-1 (Rattus norvegicus), sequence (Q08463 whole entry): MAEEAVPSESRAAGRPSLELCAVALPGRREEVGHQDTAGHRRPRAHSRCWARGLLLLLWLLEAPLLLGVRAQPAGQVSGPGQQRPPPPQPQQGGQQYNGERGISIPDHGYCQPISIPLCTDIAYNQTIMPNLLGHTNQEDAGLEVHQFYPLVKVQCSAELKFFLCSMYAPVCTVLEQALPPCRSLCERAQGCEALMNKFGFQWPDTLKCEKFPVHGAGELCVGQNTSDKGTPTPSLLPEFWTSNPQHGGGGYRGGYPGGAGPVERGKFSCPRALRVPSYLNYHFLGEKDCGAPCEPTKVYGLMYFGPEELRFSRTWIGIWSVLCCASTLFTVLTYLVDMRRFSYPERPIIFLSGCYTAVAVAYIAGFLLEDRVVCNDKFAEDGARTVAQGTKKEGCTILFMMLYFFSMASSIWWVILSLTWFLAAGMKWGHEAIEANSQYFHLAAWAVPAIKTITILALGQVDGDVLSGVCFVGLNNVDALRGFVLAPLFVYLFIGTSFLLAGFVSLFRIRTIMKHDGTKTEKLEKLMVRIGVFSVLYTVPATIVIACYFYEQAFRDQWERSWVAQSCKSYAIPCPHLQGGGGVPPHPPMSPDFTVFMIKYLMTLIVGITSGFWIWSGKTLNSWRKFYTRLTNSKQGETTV

[2] = target: Frizzled-1 (Homo sapiens) (UniProt Q9UP38); assay: Antagonist activity at Wnt3a-stimulated frizzled-1 (unknown origin) expressed in human HEK293superTOP flash cells at 10 nM incubated for 24 hrs by luciferase reporter gene assay; format: functional, cell-based; conditions: HEK293
Frizzled-1 (Homo sapiens), sequence (Q9UP38 70-647 limits assumed): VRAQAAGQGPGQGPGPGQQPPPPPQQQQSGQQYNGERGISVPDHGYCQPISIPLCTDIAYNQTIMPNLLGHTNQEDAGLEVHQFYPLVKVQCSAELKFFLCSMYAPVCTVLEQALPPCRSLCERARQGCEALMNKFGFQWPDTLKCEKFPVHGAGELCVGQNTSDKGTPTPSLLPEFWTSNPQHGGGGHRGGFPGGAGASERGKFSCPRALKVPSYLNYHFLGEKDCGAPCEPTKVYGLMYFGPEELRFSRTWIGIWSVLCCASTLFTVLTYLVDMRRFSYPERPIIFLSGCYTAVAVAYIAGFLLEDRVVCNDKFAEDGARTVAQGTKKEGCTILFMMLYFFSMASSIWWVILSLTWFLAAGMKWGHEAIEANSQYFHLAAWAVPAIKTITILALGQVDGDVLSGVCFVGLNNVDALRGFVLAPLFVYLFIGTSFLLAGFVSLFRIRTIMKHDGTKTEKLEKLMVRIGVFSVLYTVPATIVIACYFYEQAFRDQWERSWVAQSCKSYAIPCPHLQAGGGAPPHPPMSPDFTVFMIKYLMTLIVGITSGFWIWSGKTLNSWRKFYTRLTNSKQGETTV

[3] = target: Frizzled-2 (Rattus norvegicus) (UniProt Q08464); assay: Antagonist activity at Wnt3a-stimulated rat frizzled-2 expressed in CHO cells up to 10 uM incubated for 24 hrs by luciferase reporter gene assay; format: cell-based; conditions: dose microM <=10, time 24.0 hrs
Frizzled-2 (Rattus norvegicus), sequence (Q08464 29-570 limits assumed): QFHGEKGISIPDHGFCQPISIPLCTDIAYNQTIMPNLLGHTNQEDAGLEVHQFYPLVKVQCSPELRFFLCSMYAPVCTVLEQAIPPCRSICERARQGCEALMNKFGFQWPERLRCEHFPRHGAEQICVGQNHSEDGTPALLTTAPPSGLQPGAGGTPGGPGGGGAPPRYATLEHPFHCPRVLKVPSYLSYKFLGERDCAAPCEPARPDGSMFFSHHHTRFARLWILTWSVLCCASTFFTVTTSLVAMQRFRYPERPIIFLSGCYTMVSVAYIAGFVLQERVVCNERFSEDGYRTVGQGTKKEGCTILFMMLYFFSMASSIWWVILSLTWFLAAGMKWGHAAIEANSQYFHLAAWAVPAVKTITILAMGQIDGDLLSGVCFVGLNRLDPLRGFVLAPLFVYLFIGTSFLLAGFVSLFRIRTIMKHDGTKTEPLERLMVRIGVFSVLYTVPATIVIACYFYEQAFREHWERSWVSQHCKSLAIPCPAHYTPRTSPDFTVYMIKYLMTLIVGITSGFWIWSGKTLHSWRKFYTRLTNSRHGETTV

Frizzled-2 = Frizzled-2 (Homo sapiens, UniProt Q14332); assay: Antagonist activity at Wnt3a-stimulated frizzled-2 (unknown origin) expressed in human HEK293superTOP flash cells at 10 nM incubated for 24 hrs by luciferase reporter gene assay; format: functional, cell-based; conditions: HEK293
Frizzled-2, sequence (Q14332 24-565 limits assumed): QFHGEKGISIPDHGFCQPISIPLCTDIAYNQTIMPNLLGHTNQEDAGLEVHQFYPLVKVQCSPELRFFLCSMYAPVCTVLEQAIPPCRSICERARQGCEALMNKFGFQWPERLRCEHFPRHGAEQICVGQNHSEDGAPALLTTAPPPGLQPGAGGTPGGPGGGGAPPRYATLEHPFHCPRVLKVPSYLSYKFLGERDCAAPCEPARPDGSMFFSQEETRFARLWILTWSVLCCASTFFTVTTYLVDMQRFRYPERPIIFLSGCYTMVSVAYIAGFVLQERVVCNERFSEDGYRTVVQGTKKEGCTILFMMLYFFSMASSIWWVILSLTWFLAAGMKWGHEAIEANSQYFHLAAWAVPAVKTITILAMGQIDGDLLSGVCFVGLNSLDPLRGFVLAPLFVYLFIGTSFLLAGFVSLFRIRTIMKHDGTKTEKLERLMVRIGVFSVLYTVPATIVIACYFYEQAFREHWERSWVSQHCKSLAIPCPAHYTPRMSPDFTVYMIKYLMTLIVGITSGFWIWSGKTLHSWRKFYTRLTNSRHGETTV

[4] = target: Frizzled-2 (Rattus norvegicus) (UniProt Q08464); assay: Antagonist activity at Wnt3a-stimulated rat frizzled-2 expressed in African green monkey COS7 cells up to 10 uM incubated for 24 hrs by luciferase reporter gene assay; format: cell-based; conditions: dose microM <=10, time 24.0 hrs
[5] = target: Frizzled-1 (Rattus norvegicus) (UniProt Q08463); assay: Antagonist activity at Wnt3a-stimulated rat frizzled-1 expressed in CHO cells up to 10 uM incubated for 24 hrs by luciferase reporter gene assay; format: cell-based; conditions: dose microM <=10, time 24.0 hrs

Measured: inhibition

CSCC[C@H](NC(=O)CNC(=O)[C@H](CCC(=O)O)NC(=O)[C@H](CO)NC(=O)[C@@H](NC(=O)[C@H](CCCCN)NC(=O)[C@H](CC(N)=O)NC(=O)[C@H](C)NC(C)=O)[C@@H](C)O)C(=O)N[C@@H](CC(=O)O)C(=O)NCC(=O)N[C@@H](CS)C(=O)N[C@@H](CCC(=O)O)C(=O)N[C@@H](CC(C)C)C(N)=O (Ac-ANKTSEGMDGCEL-NH2)
inactive: all assays above

CSCC[C@H](NC(=O)CNC(=O)[C@H](C)NC(=O)[C@H](CO)NC(=O)[C@@H](NC(=O)[C@H](CCCCN)NC(=O)[C@H](CC(N)=O)NC(=O)[C@H](CS)NC(C)=O)[C@@H](C)O)C(=O)N[C@@H](CC(=O)O)C(=O)NCC(=O)N[C@@H](CS)C(=O)N[C@@H](CCC(=O)O)C(=O)N[C@@H](CC(C)C)C(N)=O (Ac-CNKTSAGMDGCEL-NH2)
inactive: all assays above

CSCC[C@H](NC(=O)CNC(=O)[C@H](CCC(=O)O)NC(=O)[C@H](CO)NC(=O)[C@@H](NC(=O)[C@H](CCCCN)NC(=O)[C@H](CC(N)=O)NC(=O)[C@H](CS)NC(C)=O)[C@@H](C)O)C(=O)N[C@@H](CC(=O)O)C(=O)N[C@@H](C)C(=O)N[C@@H](CS)C(=O)N[C@@H](CCC(=O)O)C(=O)N[C@@H](CC(C)C)C(N)=O (Ac-CNKTSEGMDACEL-NH2)
inactive: all assays above

CSCC[C@H](NC(=O)CNC(=O)[C@H](CCC(=O)O)NC(=O)[C@H](CO)NC(=O)[C@@H](NC(=O)[C@H](C)NC(=O)[C@H](CC(N)=O)NC(=O)[C@H](CS)NC(C)=O)[C@@H](C)O)C(=O)N[C@@H](CC(=O)O)C(=O)NCC(=O)N[C@@H](CS)C(=O)N[C@@H](CCC(=O)O)C(=O)N[C@@H](CC(C)C)C(N)=O (Ac-CNATSEGMDGCEL-NH2)
inactive: all assays above

CSCC[C@H](NC(=O)CNC(=O)[C@H](CCC(=O)O)NC(=O)[C@H](CO)NC(=O)[C@@H](NC(=O)[C@H](CCCCN)NC(=O)[C@H](CC(N)=O)NC(=O)[C@H](CS)NC(C)=O)[C@@H](C)O)C(=O)N[C@@H](CC(=O)O)C(=O)NCC(=O)N[C@@H](C)C(=O)N[C@@H](CCC(=O)O)C(=O)N[C@@H](CC(C)C)C(N)=O (Ac-CNKTSEGMDGAEL-NH2)
inactive: all assays above

CSCC[C@H](NC(=O)CNC(=O)[C@H](CCC(=O)O)NC(=O)[C@H](CO)NC(=O)[C@@H](NC(=O)[C@H](CCCCN)NC(=O)[C@H](CC(N)=O)NC(=O)[C@H](CS)NC(C)=O)[C@@H](C)O)C(=O)N[C@@H](CC(=O)O)C(=O)NCC(=O)N[C@@H](CS)C(=O)N[C@@H](C)C(=O)N[C@@H](CC(C)C)C(N)=O (Ac-CNKTSEGMDGCAL-NH2)
inactive: all assays above

CSCC[C@H](NC(=O)CNC(=O)[C@H](CCC(=O)O)NC(=O)[C@H](CO)NC(=O)[C@@H](NC(=O)[C@H](CCCCN)NC(=O)[C@H](CC(N)=O)NC(=O)[C@H](CS)NC(C)=O)[C@@H](C)O)C(=O)N[C@@H](C)C(=O)NCC(=O)N[C@@H](CS)C(=O)N[C@@H](CCC(=O)O)C(=O)N[C@@H](CC(C)C)C(N)=O (Ac-CNKTSEGMAGCEL-NH2)
inactive: all assays above

CSCC[C@H](NC(=O)CNC(=O)[C@H](CCC(=O)O)NC(=O)[C@H](CO)NC(=O)[C@@H](NC(=O)[C@H](CCCCN)NC(=O)[C@H](CC(N)=O)NC(=O)[C@H](CS)NC(C)=O)[C@@H](C)O)C(=O)N[C@@H](CC(=O)O)C(=O)NCC(=O)N[C@@H](CS)C(=O)N[C@@H](CCC(=O)O)C(=O)N[C@@H](C)C(N)=O (Ac-CNKTSEGMDGCEA-NH2)
inactive: all assays above

CSCC[C@H](NC(=O)CNC(=O)[C@H](CCC(=O)O)NC(=O)[C@H](CO)NC(=O)[C@@H](NC(=O)[C@H](CCCCN)NC(=O)[C@H](C)NC(=O)[C@H](CS)NC(C)=O)[C@@H](C)O)C(=O)N[C@@H](CC(=O)O)C(=O)NCC(=O)N[C@@H](CS)C(=O)N[C@@H](CCC(=O)O)C(=O)N[C@@H](CC(C)C)C(N)=O (Ac-CAKTSEGMDGCEL-NH2)
inactive: all assays above

CC[C@H](C)[C@H](NC(=O)CNC(=O)[C@H](Cc1cnc[nH]1)NC(=O)[C@H](CO)NC(=O)[C@H](CO)NC(=O)[C@@H](NC(=O)[C@H](CC(N)=O)NC(=O)[C@@H](N)CS)C(C)C)C(=O)N[C@@H](CC(=O)O)C(=O)NCC(=O)N[C@@H](CS)C(=O)N[C@@H](CC(=O)O)C(=O)N[C@@H](CC(C)C)C(=O)O (H-CNVSSHGIDGCDL-OH)
inactive: all assays above

CC(=O)N[C@@H](CS)C(=O)N[C@@H](CC(N)=O)C(=O)N[C@@H](CCCCN)C(=O)N[C@H](C(=O)N[C@@H](CO)C(=O)N[C@@H](CCC(=O)O)C(=O)NCC(=O)N[C@@H](C)C(=O)N[C@@H](CC(=O)O)C(=O)NCC(=O)N[C@@H](CS)C(=O)N[C@@H](CCC(=O)O)C(=O)N[C@@H](CC(C)C)C(N)=O)[C@@H](C)O (Ac-CNKTSEGADGCEL-NH2)
inactive: all assays above

CSCC[C@H](NC(=O)[C@H](C)NC(=O)[C@H](CCC(=O)O)NC(=O)[C@H](CO)NC(=O)[C@@H](NC(=O)[C@H](CCCCN)NC(=O)[C@H](CC(N)=O)NC(=O)[C@H](CS)NC(C)=O)[C@@H](C)O)C(=O)N[C@@H](CC(=O)O)C(=O)NCC(=O)N[C@@H](CS)C(=O)N[C@@H](CCC(=O)O)C(=O)N[C@@H](CC(C)C)C(N)=O (Ac-CNKTSEAMDGCEL-NH2)
inactive: all assays above

CSCC[C@H](NC(=O)CNC(=O)[C@H](CCC(=O)O)NC(=O)[C@H](C)NC(=O)[C@@H](NC(=O)[C@H](CCCCN)NC(=O)[C@H](CC(N)=O)NC(=O)[C@H](CS)NC(C)=O)[C@@H](C)O)C(=O)N[C@@H](CC(=O)O)C(=O)NCC(=O)N[C@@H](CS)C(=O)N[C@@H](CCC(=O)O)C(=O)N[C@@H](CC(C)C)C(N)=O (Ac-CNKTAEGMDGCEL-NH2)
inactive: all assays above

CSCC[C@H](NC(=O)CNC(=O)[C@H](CCC(=O)O)NC(=O)[C@H](CO)NC(=O)[C@@H](NC(=O)[C@H](CCCCN)NC(=O)[C@H](CC(N)=O)NC(=O)[C@H](CS)NC(C)=O)[C@@H](C)O)C(=O)N[C@@H](CC(=O)O)C(=O)NCC(=O)N[C@@H](CS)C(=O)N[C@@H](C)C(=O)N[C@@H](C)C(N)=O (Ac-CNKTSEGMDGCAA-NH2)
inactive: all assays above

CSCC[C@H](NC(=O)CNC(=O)[C@H](CCC(=O)O)NC(=O)[C@H](CO)NC(=O)[C@H](C)NC(=O)[C@H](CCCCN)NC(=O)[C@H](CC(N)=O)NC(=O)[C@H](CS)NC(C)=O)C(=O)N[C@@H](CC(=O)O)C(=O)NCC(=O)N[C@@H](CS)C(=O)N[C@@H](CCC(=O)O)C(=O)N[C@@H](CC(C)C)C(N)=O (Ac-CNKASEGMDGCEL-NH2)
inactive: all assays above

CSCC[C@H](NC(=O)[C@H](C)NC(=O)[C@H](CCC(=O)O)NC(=O)[C@H](CO)NC(=O)[C@H](C)NC(=O)[C@H](CCCCN)NC(=O)[C@H](CC(N)=O)NC(=O)[C@H](CS)NC(C)=O)C(=O)N[C@@H](C)C(=O)NCC(=O)N[C@@H](CS)C(=O)N[C@@H](CCC(=O)O)C(=O)N[C@@H](CC(C)C)C(N)=O (Ac-CNKASEAMAGCEL-NH2)
inactive: all assays above
